In patent US20230183246A1, “CONTINUOUS FLOW SONOGASHIRA COUPLING SYNTHESIS METHOD” (Purdue Research Foundation, priority 2020, published 2023):
Values joined by “and” are separate entries in the source; they are usually repeats but may differ in a detail not shown here. Equal values may be shown once.

Columns and labels:
[1] = test system: FLT-3; conditions: cited from earlier work
[2] = test system: RET and its mutant forms; conditions: compared with reported RET inhibitors; cited from earlier work
[3] = solubility in DMF; assay type: physicochemical
Protocol: The reaction set-up used a T-mixer at 20° C. prior to injecting the solution of 4 into the heated glass reactor chip that was held at 80 or 95° C. […] Based on these findings, we sought to modify our strategy for execution of this reaction in flow.

CN1CCN(Cc2ccc(NC(=O)c3cncc(C#Cc4cnc(N)c5ncccc45)c3)cc2C(F)(F)F)CC1 [HSN608, 5-((8-Amino-1,7-naphthyridin-5-yl)ethynyl)-N-(4-((4-methylpiperazin-1-yl)methyl)-3-(trifluoromethyl)phenyl)nicotinamide]
potency toward inhibition of all FLT-3 forms [1]: high potency | inhibition activity of RET and its mutant forms [2]: better than the reported RET inhibitors

Nc1ncc(Br)c2cccnc12 [compound 4, 5-bromo-8-amino-1,7-naphthyridine]
solubility ([3]; 20° C. in DMF): 14.6 mg/ml and 0.065 M | solubility ([3]; 20° C. in DMF, after recrystallizing twice (EtOH, then EtOAc)): 0.0785 M and 17.6 mg/ml | solubility ([3]; 55° C. in DMF): 38.1 mg/ml and 0.170 M
